Reference: article PMC8634879, “Design, Synthesis, and Biological Evaluation of Pyrano[2,3-c]-pyrazole–Based RalA Inhibitors Against Hepatocellular Carcinoma” (Frontiers in Chemistry, 2021)
Read-outs that look alike come from different tables or passages of the source.

Key:
RalA = target: T1, RalA (Homo sapiens, UniProt P11233); assay: GST pulldown of activated RalA; assay type: cell-based
T1 construct: expressed in transfected cells; host or cells: HepG2 (from b6; the methods paragraph names no cell line)
T1 sequence (P11233 1-203 limits assumed): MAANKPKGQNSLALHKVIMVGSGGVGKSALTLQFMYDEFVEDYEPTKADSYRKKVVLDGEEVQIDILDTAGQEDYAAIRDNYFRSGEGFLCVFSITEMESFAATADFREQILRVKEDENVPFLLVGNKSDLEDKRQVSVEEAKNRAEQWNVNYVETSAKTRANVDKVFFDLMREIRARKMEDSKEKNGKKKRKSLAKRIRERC
Method: (§1) GST pulldown assays were performed to assess 4p RalA/B inhibitory capacities. […] Only activated RalA was suppressed after incubation with 0.5 μM of compound 4p (Figure 5A).
(§2) The in vitro RalA/B bioactivity assays were performed following methods outlined in previous reports. ([Yan et al., 2016]; [Zhang et al., 2018]; [Walsh et al., 2019]; [Bum-Erdene et al., 2020]). In brief, the lysates of the test compound or vehicle-treated cells were cleared using cold centrifugation, and supernatants were collected. An RalBP1 solution was added to 96-well plates and incubated for 1–2 h, and then the plates were washed thrice using ELISA buffer. Next, cellular lysates were added, and samples were incubated overnight at 4°C. Then, ice-cold mouse anti-FLAG antibody was added, and samples were incubated for one more hour. After subsequent washing with ELISA buffer thrice, the HRP-conjugated anti-mouse antibody was added, and samples were incubated for another hour. Then, the HRP substrate was added. Antigen–antibody reactions were quenched by the addition of sulfuric acid (2 mol/L). Remaining RalA/B was detected by the OD450 values which were collected by using a plate reader. Cell proliferation assays, colony formation assays, apoptosis assays, GST pulldown, and Western blotting were used following methods outlined in our previous reports. ([Zhou et al., 2015]; [Zhang et al., 2016]; [Yang et al., 2017]; [He et al., 2019]). Autophagy levels and protein immunoblotting were used following the methods mentioned in our previous reports ([Pan et al., 2018]; [Wang et al., 2018]; [Hao et al., 2019]; [Wang et al., 2019]; [Peng et al., 2020]). Detailed experimental procedures are described in supporting materials.

Huh-7 cells = assay: Cell proliferation assay (MTT), Huh-7; assay type: cell-based; details: Homo sapiens
In short: (§3)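 HCC lines cultured in DMEM with 10% FBS and streptomycin; cytotoxicity measured by MTT method as previously described.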

HepG2 cells = assay: Cell proliferation assay (MTT), HepG2; assay type: cell-based; details: Homo sapiens
In short: as §3

RalB [1] = target: T2, RalB (Homo sapiens, UniProt P11234); assay: ELISA-based RalB activity assay (RalBP1-coated plates, lysates of compound-treated cells); assay type: biochemical
T2 construct: expressed in transfected cells; host or cells: HepG2 (from b6; the methods paragraph names no cell line)
T2 sequence (P11234 1-203 limits assumed): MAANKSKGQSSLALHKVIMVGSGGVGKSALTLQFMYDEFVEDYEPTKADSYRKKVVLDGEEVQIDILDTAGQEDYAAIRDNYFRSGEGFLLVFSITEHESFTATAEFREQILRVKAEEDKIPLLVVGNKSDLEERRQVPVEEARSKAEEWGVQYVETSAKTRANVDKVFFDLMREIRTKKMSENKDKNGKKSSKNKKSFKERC
In short: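 Lysates of compound- or vehicle-treated cells, cleared by cold centrifugation, incubated overnight at 4°C on RalBP1-coated plates. Bound Ral detected with mouse anti-FLAG then HRP anti-mouse antibody; reaction stopped with 2 mol/L sulfuric acid and read at OD450.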

RalB [2] = target: T2, RalB; assay: GST pulldown of activated RalB; assay type: cell-based; details: 2.0 μM
Method: as §1
as §2, with “([Zhou et al., 2015]; [Zhang et al., 2016]; [Yang et al., 2017]; [He et al., 2019]). Autophagy levels and protein immunoblotting were used following the methods mentioned in our previous reports ([Pan et al., 2018]; [Wang et al., 2018]; [Hao et al., 2019]; [Wang et al., 2019]; [Peng et al., 2020]). Detailed experimental procedures are described in supporting materials.” left out

SMMC-7721 cells = assay: Cell proliferation assay (MTT), SMMC-7721; assay type: cell-based; details: Homo sapiens, average of at least three independent replicates ± SD, read-out: Anti-proliferative activities (IC50, μM) SMMC-7721
Method: The antibodies recognizing LC3, p62/SQSTM1, RalA, RalB, and GAPDH were purchased from Proteintech (Wuhan, China). HCC cell lines, including HepG2, Hep3B, Huh-7, and SMMC-7721, were obtained from the Chinese Center for Type Culture Collection (Wuhan, China) and cultured in DMEM (Dulbecco’s modified Eagle’s medium) with 10% FBS (fetal bovine serum) and streptomycin. Cytotoxicity assays were performed by using the MTT method as previously described.
as §2

COc1ccc(S(=O)(=O)NC2=C(C#N)C(c3ccc(C(F)(F)F)cc3)c3c(C)nn(-c4ccccc4)c3O2)cc1 (centres unmarked) [4p, N-(5-cyano-3-methyl-1-phenyl-4-(4-(trifluoromethyl)phenyl)-1,4-dihydropyrano[2,3-c]-pyrazol-6-yl)-4-methoxybenzenesulfonamide]
activated RalA protein expression level (RalA; 0.5 μM, only activated RalA, not RalB): suppressed
activated RalA protein expression level (RalA; 2.0 μM): significantly suppressed
total RalA expression (RalA; GST pulldown experiment): unchanged
IC50 (Huh-7 cells; Table 1, cell proliferation inhibition, read-out: IC50 (μM) Huh7): 4.31 ± 0.39 µM
IC50 (Huh-7 cells; Table 2, average of at least three independent replicates ± SD, read-out: Anti-proliferative activities (IC50, μM) Huh-7): 4.31 ± 0.39 µM
IC50 (HepG2 cells; HepG2, Table 1, cell proliferation inhibition, read-out: IC50 (μM) HepG2): 2.28 ± 0.23 µM
IC50 (HepG2 cells; HepG2, Table 2, average of at least three independent replicates ± SD, read-out: Anti-proliferative activities (IC50, μM) HepG2): 2.28 ± 0.23 µM
remaining activity at 1 µM (RalB [1]; 1 μM compound, % control = active (RalBP1-bound) RalB remaining): 22%
IC50 (RalB [1]; enzymatic inhibition, average of at least three independent replicates ± SD, read-out: Kinase activities (IC50, μM) RalB): 0.41 ± 0.07 µM
activated RalB protein expression level (RalB [2]): significantly suppressed
IC50 (SMMC-7721 cells): 5.38 ± 0.37 µM
